Measured values: patent US10488417B2, “Compounds for use as imaging agents” (United Arab Emirates University, priority 2014, dated 2019)

What was measured:
Format in all cases: biochemical
α-synuclein [1] = biological target: T1, α-synuclein (Homo sapiens, UniProt P37840); test: α-synuclein fibrillation, Thioflavin-T (Th-T) binding assay; conditions: 25 μM α-synuclein; for inhibition at 50 µM: compound 50 μM
T1 construct: GST (N, cleaved yes); made in house; host or cells: E. coli BL21
Description: The protein purity was estimated to be >95% using an SDS gel. Ginsenoside, Rb1, stock solutions (10 mM) were prepared in 100% DMSO, and the final amount of DMSO in the sample solutions was 1%. Samples of 25 μM α-synuclein in PBS were aged alone or with Rb1 at various molar ratios (Rb1:α-synuclein molar ratios of 4:1, 2:1 and 1:1). The samples were placed in 1.5 ml sterile polypropylene tubes, drops of mineral oil were added to prevent sample evaporation, and the tubes were then sealed with parafilm and incubated at 37° C. for 5 days with continuous shaking at 800 rpm in a Thermomixer (Eppendorf). Samples were collected at the indicated time points, and a Thioflavin-T assay was performed immediately at each time point, while the rest of the samples were stored at −80° C. until needed for further analyses.
α-Synuclein fibril formation was monitored by Th-T binding assay. Th-T is a fluorescent dye that interacts with fibrils containing a β-sheet structure. A total of 10 μL of each sample was diluted in 40 μL of Th-T in PBS. Fluorescence was then measured in a 384-well, untreated black micro-well plate (Nunc, Denmark) using a microplate reader (Victor X3 2030, Perkin Elmer) with the excitation and emission wavelengths set at 450 and 486 nm, respectively. To allow for background fluorescence, the fluorescence intensity of a blank PBS solution was subtracted from all readings.
α-Synuclein solution at a concentration of 25 μM was incubated at 37° C. with continuous shaking for 5 days, leading to fibril formation, which was monitored by Th-T fluorescence at regular time intervals. α-Synuclein was incubated with each of Gn Rb1, salvianolic acid B and dihydromyricetin at molar ratios of 4:1, 2:1 and 1:1 (molar ratio Compound: α-synuclein) with a constant α-synuclein concentration of 25 μM.

α-synuclein [2] = biological target: T1, α-synuclein; test: Seeding polymerization assay of α-synuclein monomers (Th-T, TEM); conditions: for inhibition of the seeding process / inhibition at 50 µM: 6 hours, 100 μM monomeric α-synuclein, 2 μM seeds; for inhibition at 50 µM: read-out: inhibition of the seeding process
Description: The aggregation of monomeric α-synuclein with or without seeding was performed as described elsewhere. The seeds were prepared by fragmenting the mature α-synuclein fibrils by sonication to obtain short fibrils, which were employed as ‘seeds’. Briefly, monomeric α-synuclein at a concentration of 100 μM was seeded with 2 μM of seeds and incubated in the presence or absence of the compounds (10 μM or 50 μM) at 37° C. for 6 hours with continuous shaking. The fibrillization was monitored by Th-T binding assay as described above.
To assess the effect of salvianolic acid B, dihydromyricetin and Gn Rb1 on the seeding of α-synuclein aggregation, the compounds were added at concentrations of 10 or 50 μM to 100 μM monomeric α-synuclein containing seeds at a final concentration of 2 μM. The mixture was then incubated with continuous mixing at 37° C. for 6 hours.

α-synuclein [3] = biological target: T1, α-synuclein; test: Transmission electron microscopy of α-synuclein aged with compounds; conditions: 25 μM α-synuclein, 5 days, molar ratios 4:1, 2:1, 1:1
Description: Electron images were produced from α-synuclein aged alone or in the presence of the compounds. The samples (5 μL) were deposited on Formvar-coated 400-mesh copper grids (Agar Scientific, UK), fixed briefly with 0.5% glutaraldehyde (5 μL), negatively stained with 2% uranyl acetate (Sigma-Aldrich, USA) and examined with a Philips CM-10 TEM electron microscope.

α-synuclein [4] = biological target: T1, α-synuclein; test: α-synuclein oligomerization by immunoblot analysis; conditions: compound: α-syn molar ratios 1:1, 2:1, 4:1; 5 days
Description: Samples of α-synuclein (20 ng) incubated alone or with the compounds were mixed with 1× sample buffer (250 mM Tris-HCl, pH 6.8, 30% glycerol, 0.02% bromophenol blue) and then separated in 15% 1 mm SDS-PAGE gels. The separated proteins were transferred to 0.45 μm nitrocellulose membranes (Whatman Gmbh-Germany) at 90 V for 80 min. The membranes were boiled for 5 min in PBS and then blocked for 1 hour with 5% non-fat milk prepared in PBS-Tween-20 (0.05%; PBST). The membranes were incubated overnight at 4° C. with the primary mouse monoclonal anti-α-syn (211) antibody, which recognizes human α-synuclein (121-125) (Santa Cruz Biotechnology, USA), at a dilution of 1:1000. The membranes were then washed several times with PBST, followed by incubation with an HRP-conjugated goat anti-mouse antibody (Dako Ltd., Ely, UK) at a dilution of 1:70,000 for 60 minutes at room temperature with gentle agitation. The membranes were then extensively washed for 25 min, and immunoreactive bands were visualized with the Super Signal West Femto Chemiluminescent Substrate Kit (Pierce, Rockford, USA) according to the manufacturer's instructions.
The effect of Gn Rb1, salvianolic acid B and dihydromyricetin on α-synuclein oligomerization was assessed by immunoblot analysis. Fresh and aged solutions of α-synuclein alone or in the presence of Gn Rb1, salvianolic acid B or dihydromyricetin were analyzed. Samples were separated in 15% SDS gels, transferred onto a nitrocellulose membrane and probed with an antibody that recognizes the amino acid residues 121-125 of α-synuclein. The majority of freshly prepared α-synuclein migrated as a band at ˜16 KDa, corresponding to α-synuclein monomers (FIGS. 4A-C).
The amount of monomeric α-synuclein in the α-synuclein aged alone samples and in the presence of compounds was quantified against a fresh α-synuclein sample that contained only the monomeric species using ImageJ software.

[5] = after 5 days of incubation, read-out: inhibition of α-synuclein fibrillation (Th-T fluorescence)

inhibition of the seeding process (α-synuclein [2]; compound 10 μM) | inhibition of α-synuclein fibrillation (Th-T fluorescence) (α-synuclein [1]; compound 25 μM, after 5 days of incubation) | inhibition at 50 µM (α-synuclein [1]; [5]) [%] | inhibition at 100 µM (α-synuclein [1]; compound 100 μM, after 5 days of incubation, read-out: inhibition of α-synuclein fibrillation (Th-T fluorescence)) [%] | inhibition at 50 µM (α-synuclein [2]; compound 50 μM) [%] | inhibition at 25 µM (α-synuclein [1]; compound 25 μM, after 5 days of incubation, read-out: inhibition of α-synuclein fibrillation (Th-T fluorescence)) [%] | inhibition of α-synuclein fibrillation (Th-T fluorescence) (α-synuclein [1]; compound 100 μM, after 5 days of incubation) | SMILES | inhibition percentage of α-synuclein fibrillation (Th-T fluorescence) (α-synuclein [1]; 2 days of incubation, 37° C., all tested concentrations) | reduction of α-synuclein fibrillation (Th-T fluorescence) (α-synuclein [1]; after 5 days of incubation, all tested concentrations) | TEM appearance of seeded α-synuclein with compound (α-synuclein [2]; after 6 h of incubation, compound 50 μM) | inhibition of the seeding process (α-synuclein [2]; compound 50 μM) | TEM appearance of α-synuclein aged in the presence of compound (α-synuclein [3]) | effect on α-synuclein oligomerization (immunoblot, densitometry) (α-synuclein [4])
showed an inhibitory effect | failed to inhibit fibrillation | 40 | 80 | ~90 |  |  | O=C1c2c(O)cc(O)cc2O[C@H](c2cc(O)c(O)c(O)c2)[C@H]1O [dihydromyricetin] |  |  |  |  | thin, short rod-like fibrils, with a fragmented appearance | inhibited α-synuclein oligomerization in a dose-dependent fashion
to a smaller extent |  | ~80 |  | ~90 | ~35 | completely abolished | O=C(/C=C/c1ccc(O)c2c1[C@H](C(=O)O[C@H](Cc1ccc(O)c(O)c1)C(=O)O)[C@@H](c1ccc(O)c(O)c1)O2)O[C@H](Cc1ccc(O)c(O)c1)C(=O)O [salvianolic acid B] |  |  |  |  | thin, short rod-like fibrils, with a fragmented appearance | inhibited α-synuclein oligomerization in a dose-dependent fashion

SMILES | inhibition of the seeding process (α-synuclein [2]; compound 10 μM) | inhibition of α-synuclein fibrillation (Th-T fluorescence) (α-synuclein [1]; compound 25 μM, after 5 days of incubation) | inhibition at 50 µM (α-synuclein [1]; [5]) [%] | inhibition at 100 µM (α-synuclein [1]; compound 100 μM, after 5 days of incubation, read-out: inhibition of α-synuclein fibrillation (Th-T fluorescence)) [%] | inhibition at 50 µM (α-synuclein [2]; compound 50 μM) [%] | inhibition at 25 µM (α-synuclein [1]; compound 25 μM, after 5 days of incubation, read-out: inhibition of α-synuclein fibrillation (Th-T fluorescence)) [%] | inhibition of α-synuclein fibrillation (Th-T fluorescence) (α-synuclein [1]; compound 100 μM, after 5 days of incubation) | inhibition percentage of α-synuclein fibrillation (Th-T fluorescence) (α-synuclein [1]; 2 days of incubation, 37° C., all tested concentrations) | reduction of α-synuclein fibrillation (Th-T fluorescence) (α-synuclein [1]; after 5 days of incubation, all tested concentrations) | TEM appearance of seeded α-synuclein with compound (α-synuclein [2]; after 6 h of incubation, compound 50 μM) | inhibition of the seeding process (α-synuclein [2]; compound 50 μM) | TEM appearance of α-synuclein aged in the presence of compound (α-synuclein [3]) | effect on α-synuclein oligomerization (immunoblot, densitometry) (α-synuclein [4])
CC(C)=CCC[C@](C)(O[C@@H]1O[C@H](CO[C@@H]2O[C@H](CO)[C@@H](O)[C@H](O)[C@H]2O)[C@@H](O)[C@H](O)[C@H]1O)[C@H]1CC[C@]2(C)[C@@H]1[C@H](O)C[C@@H]1[C@@]3(C)CC[C@H](O[C@@H]4O[C@H](CO)[C@@H](O)[C@H](O)[C@H]4O[C@@H]4O[C@H](CO)[C@@H](O)[C@H](O)[C@H]4O)C(C)(C)[C@@H]3CC[C@]12C [Gn Rb1, ginsenoside Rb1] | approximately 60% |  |  |  |  |  |  | approximately 90% | approximately 80% | mostly globular forms of α-synuclein | approximately 90% | thin, short rod-like fibrils, with a fragmented appearance | potent inhibitor of α-synuclein oligomerization at all molar ratios
